Laboratory results from BindingDB's records for doi:10.1021/jm00172a024 (Rorer Central Research, 1990).

Target: Cysteinyl leukotriene receptor 1 (Cavia porcellus)
Experiment: In vitro binding affinity against Cysteinyl leukotriene D4 receptor from guinea pig lung membrane

Ki: 0.011 µM
SMILES: CCCC(CCc1nnn[nH]1)Cc1ccc(OCc2ccc3ccccc3n2)cc1 (stereo unspecified)
